In US11071488B2, “Method for determining the likelihood of torsades de pointes being induced” (ASSISTANCE PUBLIQUE—HOPITAUX DE PARIS, priority 2016, dated 2021):
Where two headings read alike, the source gives them in different places.

What was measured:
IKr channel [1] = molecular target: T1, IKr channel (Homo sapiens, UniProt Q12809); conditions: for double peaks (notches) three hours after taking sotalol: 80 mg sotalol
Description: The QTcF, TAmp and TpTe were measured according to the same protocol as for example 1, before and three hours after administration of a single oral dose of sotalol at 80 mg.
The ΔQTcF, ΔTpTe and ΔTAmp were also calculated.

IKr channel [2] = molecular target: T1, IKr channel; test: ECG changes three hours after a single oral dose of 80 mg sotalol (GENEREPOL cohort, Example 1); assay type: in vivo; design: from tissue; host or cells: heart (ventricular myocardium) of living human volunteers; surface ECG read-out; conditions: H3
Description: The cohort of patients was that of the GENEREPOL study, and consisted of 995 volunteers in good health, from 18 to 60 years old, of European or North African origin. The objective of this study was to identify genetic predispositions linked to the inhibition of the IKr channel after administration of 80 mg sotalol, with a body mass index between 19 and 29 kg/m^2, informed consent having been received. […]
An intravenous catheter was inserted for taking blood samples. The ECG of the patients was then recorded using the Cardioplug device (Cardionics Inc®, Brussels, Belgium) connected to a laptop computer. […] Three hours after sotalol had been taken ([…]), the ECG was again recorded (in triplicate) after the subjects had remained lying on their back for 10 minutes and before lunch. […]
The QTcF, TpTe and TAmp and the presence of notches (double peak) in the T wave were quantified. […]
The quantitative analysis of the QTcF, TpTe and TAmp was carried out by two trained investigators, in order to limit the inter-evaluator variability.
TpTe was measured by the tangent method, in triplicate, on a representative beat (average representation of an ECG of 10 seconds) on the V3, V4 and V5 leads. […]
QTcF was measured by the tangent method on the DII lead for three consecutive beats and the average value of an evaluation in triplicate was retained. […]

IKr potassium channel = IKr potassium channel (Homo sapiens, UniProt Q12809); conditions: cited from earlier work
IKr potassium channel, sequence (Q12809 whole entry): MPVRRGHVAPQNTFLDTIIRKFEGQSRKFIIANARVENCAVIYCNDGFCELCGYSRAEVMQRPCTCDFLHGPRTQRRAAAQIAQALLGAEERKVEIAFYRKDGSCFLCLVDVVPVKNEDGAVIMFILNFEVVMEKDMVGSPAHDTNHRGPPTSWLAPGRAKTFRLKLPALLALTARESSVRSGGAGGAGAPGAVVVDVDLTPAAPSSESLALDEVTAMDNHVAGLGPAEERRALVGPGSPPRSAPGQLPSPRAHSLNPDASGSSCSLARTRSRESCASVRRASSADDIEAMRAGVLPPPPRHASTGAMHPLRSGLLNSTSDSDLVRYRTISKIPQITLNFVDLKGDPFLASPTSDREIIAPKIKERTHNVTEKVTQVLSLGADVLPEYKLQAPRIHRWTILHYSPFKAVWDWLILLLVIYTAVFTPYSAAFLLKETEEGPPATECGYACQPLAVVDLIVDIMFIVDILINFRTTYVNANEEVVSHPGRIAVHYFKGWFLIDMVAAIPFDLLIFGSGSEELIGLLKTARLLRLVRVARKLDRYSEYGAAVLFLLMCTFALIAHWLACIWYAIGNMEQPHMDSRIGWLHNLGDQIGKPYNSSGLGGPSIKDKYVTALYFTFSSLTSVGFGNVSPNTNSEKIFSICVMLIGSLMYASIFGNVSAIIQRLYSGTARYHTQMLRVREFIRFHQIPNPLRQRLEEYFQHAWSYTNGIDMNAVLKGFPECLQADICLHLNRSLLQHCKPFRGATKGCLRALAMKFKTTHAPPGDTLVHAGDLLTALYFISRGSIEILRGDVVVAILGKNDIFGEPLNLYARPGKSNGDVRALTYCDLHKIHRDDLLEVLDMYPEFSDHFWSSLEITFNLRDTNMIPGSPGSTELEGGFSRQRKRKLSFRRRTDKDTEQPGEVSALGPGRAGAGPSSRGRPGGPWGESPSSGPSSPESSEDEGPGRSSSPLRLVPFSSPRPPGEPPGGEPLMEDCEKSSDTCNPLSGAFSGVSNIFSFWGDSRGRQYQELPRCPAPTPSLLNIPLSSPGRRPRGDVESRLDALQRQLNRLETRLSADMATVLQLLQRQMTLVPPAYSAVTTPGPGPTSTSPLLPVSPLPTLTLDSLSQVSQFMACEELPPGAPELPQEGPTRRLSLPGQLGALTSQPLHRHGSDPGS

T1 sequence (Q12809 whole entry): as above

Row | Structure (SMILES) | double peaks (notches) three hours after taking sotalol (IKr channel [1]; women taking drospirenone) | subjects exhibiting a double peak (notch) (IKr channel [2]; first (exploration) cohort, 40 subjects) | subjects exhibiting a double peak (notch) (IKr channel [2]; second (replication) cohort, 51 subjects) | double peaks (notches) three hours after taking sotalol (IKr channel [1]; women not taking an oral contraceptive) | plasma sotalol concentration (IKr channel [1]; women taking drospirenone vs women with no contraception) | risk of induction of torsades de pointes (IKr potassium channel; dose-dependent) | increase in QT/QTc (IKr potassium channel; sotalol at 80 mg) | induction of an episode of torsade de pointes (IKr potassium channel; sotalol at 80 mg) | time of maximum concentration after oral intake (IKr potassium channel; taken orally)
1 | C[C@]12CCC(=O)C=C1[C@@H]1C[C@@H]1[C@H]1[C@@H]3[C@@H]4C[C@@H]4[C@@]4(CCC(=O)O4)[C@@]3(C)CC[C@@H]12 [drospirenone] | 25.8% | – | – | – | – | – | – | – | –
2 | CC(C)NCC(O)c1ccc(NS(C)(=O)=O)cc1 (stereo not drawn) [sotalol] | – | 8% | 10% | 13.4% | No difference | up to 7 % of patients treated | approximately 20 ms | does not induce an episode of torsade de pointes | approximately 3 hours
